# According to US10682319B2, “Necrosis inhibitors” (National Institute of Biological Sciences, Beijing, priority 2014, dated 2020):
# Where two headings read alike, the source gives them in different places.
# Tests used:
# [1] = molecular target: T1, Recombinant full-length RIPK1 protein with N-terminal GST-tag (hRIP1 kinase) (Homo sapiens, UniProt Q13546); assay: Kinase assay of RIPK1 (ADP-Glo); format: biochemical; conditions: for IC50: RIPK1 161 nM, ATP 50 uM, MBP 20 uM, 90 min
# T1 construct: Recombinant full-length RIPK1 protein with N-terminal GST-tag; GST (N); purchased SignalChem R07-34G
# T1 sequence (Q13546 1-671): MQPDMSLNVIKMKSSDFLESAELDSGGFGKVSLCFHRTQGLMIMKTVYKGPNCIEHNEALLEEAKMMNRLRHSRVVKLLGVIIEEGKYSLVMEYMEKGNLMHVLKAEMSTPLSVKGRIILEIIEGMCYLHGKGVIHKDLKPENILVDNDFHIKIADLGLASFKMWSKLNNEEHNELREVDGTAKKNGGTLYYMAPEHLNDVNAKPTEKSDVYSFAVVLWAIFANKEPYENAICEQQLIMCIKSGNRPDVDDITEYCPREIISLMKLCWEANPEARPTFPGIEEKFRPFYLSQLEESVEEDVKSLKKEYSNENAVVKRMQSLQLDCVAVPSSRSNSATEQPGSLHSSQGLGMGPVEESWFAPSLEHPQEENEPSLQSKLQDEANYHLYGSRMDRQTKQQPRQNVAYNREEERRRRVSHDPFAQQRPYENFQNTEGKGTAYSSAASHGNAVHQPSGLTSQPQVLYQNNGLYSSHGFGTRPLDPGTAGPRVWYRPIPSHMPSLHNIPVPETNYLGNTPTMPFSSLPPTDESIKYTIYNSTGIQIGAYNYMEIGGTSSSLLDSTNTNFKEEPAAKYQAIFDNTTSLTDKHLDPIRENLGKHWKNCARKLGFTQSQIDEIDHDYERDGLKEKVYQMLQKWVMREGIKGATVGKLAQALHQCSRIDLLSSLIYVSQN
# Protocol: Recombinant full-length RIPK1 protein with N-terminal GST-tag (Cat # R07-34G) was purchased from SignalChem. The ADP-Glo™ kinase assay kit (Cat # V9102) was from Promega. MBP (cat # M2295) protein and all the other chemicals were from Sigma. The 384-well assay plates (Cat #3674, white, opaque) were purchased from Corning.
# Kinase activity assay and data analysis: The RIPK1 kinase assay was performed in white 384-well plate. The assay buffer contained 25 mM HEPES (pH7.2), 20 mM MgCl2, 12.5 mM MnCl2, 5 mM EGTA, 2 mM EDTA, 12.5 mM β-glycerol phosphate and 2 mM DTT. RIPK1 was first incubated with compounds or DMSO control for 15 min, then ATP/MBP substrate mixture was added to initiate the reaction. The final concentration of RIPK1 was 161 nM, while the final concentration of ATP was 50 uM, and MBP 20 uM. After 90 min reaction at room temperature, the ADP-Glo reagent and detection solution were added following the technical manual of ADP-Glo™ kinase assay kit (Promega). The luminescence was measured on PerkinElmer Enspire. The data was analyzed using Graphpad Prism (GraphPad Software; www.graphpad.com). The curves were fitted using a non-linear regression model with a sigmoidal dose response.
# [2] = tested on: HT-29 cells; assay: Necrosis assay (TNF-α/Smac mimetic/z-VAD induced necrosis, cell viability by ATP level); format: cell-based
# Method in brief: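 Necrosis induced by 20 ng/ml TNF-α, 100 nM Smac mimetic and […], with compound added concurrently for 24 h. Viability read as ATP luminescence (CellTiter-Glo), normalized to DMSO-treated cells; duplicates.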
# [3] = Homo sapiens, HT-29, 24 h, HT-29, TNF-α + Smac mimetic + z-VAD, 24 hrs, ATP level, values given as ranges in uM, read-out: EC50 (inhibition of necrosis in HT-29 cells)
# [4] = Homo sapiens, HT-29, cell necrosis assay, exemplary data table, read-out: Cell viability assay, EC50
# [5] = HT-29, TNF-α + Smac mimetic + z-VAD, 24 hrs, ATP level, values given as ranges in nM, read-out: EC50 (inhibition of necrosis in HT-29 cells)
compound,measurement,setting,value
"CCC(C)(C)C(=O)N(C)Cc1ccccc1Cl [Compound 14, N-(2-chlorobenzyl)-N,2,2-trimethylbutanamide]",inhibition at 2 µM,[1]; at 2uM compound,66%
same,EC50,[2]; [3],1 to 10 µM
same,EC50,[2]; [4],3.28 µM
"CCC(C)(C)C(=O)N(C)Cc1cccc(F)c1 [Compound 16, N-(3-fluorobenzyl)-N,2,2-trimethylbutanamide]",IC50,[1],52 nM
same,EC50,[2]; [5],0.001 to 1 µM
"CCC(C)(C)C(=O)N(C)Cc1cc(F)cc(F)c1F [Compound 75, N,2,2-trimethyl-N-(2,3,5-trifluorobenzyl)butanamide]",IC50,[1],33 nM
same,EC50,[2]; [5],0.001 to 1 µM
"CCC(C)(C)C(=O)N(O)Cc1ccccc1 [Compound 92, N-benzyl-N-hydroxy-2,2-dimethylbutanamide]",IC50,[1],13.2 nM
same,EC50,[2]; [5],0.001 to 1 µM
same,EC50,[2]; [4],0.0284 µM
"CCC(C)(C)C(=O)N(O)Cc1cc(F)c(F)c(F)c1 [Compound 99, N-hydroxy-2,2-dimethyl-N-(3,4,5-trifluorobenzyl)butanamide]",IC50,[1],29.6 nM
same,EC50,[2]; [5],0.001 to 1 µM
same,EC50,[2]; [4],0.0457 µM
CC(F)(F)C(C)(C)C(=O)N(O)Cc1cc(F)c(F)cc1F [Compound S12],EC50,[2]; [3],1 to 100 µM
CC(F)(F)C(C)(C)C(=O)N(O)Cc1cc(F)c(F)c(F)c1 [Compound S13],EC50,[2]; [3],1 to 100 µM
CC(F)(F)C(C)(C)C(=O)N(O)Cc1cc(F)cc(F)c1F [Compound S14],EC50,[2]; [3],1 to 100 µM
CON(Cc1ccc(F)cc1)C(=O)C(C)(C)C(C)(F)F [Compound S15],EC50,[2]; [3],1 to 100 µM
CON(Cc1ccc(F)cc1F)C(=O)C(C)(C)C(C)(F)F [Compound S16],EC50,[2]; [3],1 to 100 µM
CON(Cc1ccc(F)c(F)c1)C(=O)C(C)(C)C(C)(F)F [Compound S17],EC50,[2]; [3],1 to 100 µM
CON(Cc1cc(F)c(F)cc1F)C(=O)C(C)(C)C(C)(F)F [Compound S18],EC50,[2]; [3],1 to 100 µM
CON(Cc1cc(F)c(F)c(F)c1)C(=O)C(C)(C)C(C)(F)F [Compound S19],EC50,[2]; [3],1 to 100 µM
CON(Cc1cc(F)cc(F)c1F)C(=O)C(C)(C)C(C)(F)F [Compound S20],EC50,[2]; [3],1 to 100 µM
